According to patent US5686486A, “4-hydroxy-benzopyran-2-ones and 4-hydroxy-cycloalkyl[b]pyran-2-ones useful to treat retroviral infections” (priority 1995, dated 1997):
Read-outs that look alike come from different tables or passages of the source.

How the values were obtained:
[1] = target: T1, HIV-1 protease (Human immunodeficiency virus type 1 group M subtype B, UniProt P04585); test: biochemical; conditions: for inhibition at 0.123 µM: read-out: HIV-1 Protease % Inhib, dose 0.123 uM; for inhibition at 0.37 µM: read-out: HIV-1 Protease % Inhib, dose 0.370 uM; for inhibition at 1.1 µM: read-out: HIV-1 Protease % Inhib, dose 1.100 uM; for inhibition at 3.3 µM: read-out: HIV-1 Protease % Inhib, dose 3.300 uM; for inhibition at 10 µM: read-out: HIV-1 Protease % Inhib, dose 10.000 uM; for inhibition at 30 µM: read-out: HIV-1 Protease % Inhib, dose 30.000 uM; for inhibition at 0.41 µM: read-out: HIV-1 Protease % Inhib, dose 0.410 uM; for inhibition at 1.23 µM: read-out: HIV-1 Protease % Inhib, dose 1.230 uM; for inhibition at 3.7 µM: read-out: HIV-1 Protease % Inhib, dose 3.700 uM; for inhibition at 11 µM: read-out: HIV-1 Protease % Inhib, dose 11.000 uM; for inhibition at 33 µM: read-out: HIV-1 Protease % Inhib, dose 33.000 uM; for inhibition at 100 µM: read-out: HIV-1 Protease % Inhib, dose 100.000 uM
Method in brief: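 Percent inhibition derived from fluorescent cleavage product separated by filtration after streptavidin-bead capture of intact biotin/FITC substrate. Reaction: enzyme (10 μl, 0.1 μM stock) with substrate (20 μl, 0.2 μM stock) and compound, 1 h at room temperature in dark, pH 5.5 acetate buffer with 1.0 M NaCl and 0.05% NP-40.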

[2] = target: T1, HIV-1 protease; test: biochemical
Method in brief: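 Enzyme (40 nM stock) and substrate (200 μM stock) incubated with inhibitor, 24–48 two-fold serial concentrations, for 90 min at room temperature, then quenched with avidin beads. Nonlinear least-squares analysis gives Ki; a known-Ki inhibitor validates each run.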

Row | Structure (SMILES) | inhibition at 0.123 µM [1] [%] | inhibition at 0.37 µM [1] [%] | inhibition at 1.1 µM [1] [%] | inhibition at 3.3 µM [1] [%] | inhibition at 10 µM [1] [%] | inhibition at 30 µM [1] [%] | Ki ([2]; read-out: HIV-1 FITC KI) [µM] | inhibition at 0.41 µM [1] [%] | inhibition at 1.23 µM [1] [%] | inhibition at 3.7 µM [1] [%] | inhibition at 11 µM [1] [%] | inhibition at 33 µM [1] [%] | inhibition at 100 µM [1] [%] | Ki ([2]; HIV-1 FITC KI) [µM] | HIV-1 Protease % Inhib ([1]; dose 0.123 uM) [%]
1 | CC(C)C(c1cccc(N)c1)c1c(O)c2c(oc1=O)CCCCCC2 (stereo not shown) [Example 371, 3-[1-(3-Aminophenyl)-2-methylpropyl]-5,6,7,8,9,10-hexahydro-4-hydroxy-2H-cycloocta[b]pyran-2-one] | 86.8 | 109 | 110 | 113 | 108 | 110 | 0.00735 | – | – | – | – | – | – | – | –
2 | O=c1oc2c(c(O)c1C(c1ccccc1)C1CC1)CCCCC2CC1CCCO1 (stereo not shown) [Example 189, 3-(Cyclopropylphenylmethyl)-6,7,8,9-tetrahydro4-hydroxy-9-[(tetrahydro-2-furanyl)methyl]-cyclohepta[b]pyran-2(5H)-one] | 15.7 | 37.6 | 69.8 | 89.3 | 98.1 | 99.3 | 0.036 | – | – | – | – | – | – | – | –
3 | O=c1oc2ccccc2c(O)c1C1CCN(Cc2ccccc2)c2ccccc21 (stereo not shown) [Example 159, 3-(1-Benzyl-1,2,3,4-tetrahydro-quinolin4-yl)-4-hydroxy-chromin-2-one] | – | – | – | – | – | – | – | < 10 | 14.4 | 39.8 | 74.3 | 84.2 | 91.1 | 2.4 | –
4 | CCC(c1ccccc1)c1c(O)c2c(oc1=O)C(Cc1ccccc1)CCCCC2 (stereo not shown) [Example 122] | – | – | – | – | – | – | 0.175 | 35.1 | 63.5 | 91.7 | 98 | 93.2 | 94.3 | – | –
5 | O=c1oc2c(c(O)c1C(c1ccccc1)C1CC1)CCCCC2CC1CC1 (stereo not shown) [Example 125, 9-Cyclopropylmethyl-3-(cyclopropyl-phenyl-methyl)-4-hydroxy-6,7,8,9-tetrahydro-5-H-cyclohepta[b]pyran-2-one] | – | – | – | – | – | – | 0.024 | 101 | 108 | 108 | 108 | 102 | 105 | – | –
6 | O=c1oc2c(c(O)c1C(c1cccc(NS(=O)(=O)c3cccc4nonc34)c1)C1CC1)CCCCCC2 (stereo not shown) [Example 290, N-[3-[Cyclopropyl(5,6,7,8,9,10-hexahydro-4-hydroxy-2-oxo-2H-cycloocta[b]pyran-3-yl)methyl]phenyl]-4-benzofurazansulfonamide] | 90.3 | 115 | 123 | 119 | 126 | 114 | 0.0027 | – | – | – | – | – | – | – | –
7 | O=C(CCn1ccc2ccccc21)Nc1cccc(C(c2c(O)c3c(oc2=O)CCCCC3)C2CC2)c1 (stereo not shown) [Example 215, 1H-Indole-1-propanamide, N-[3-[cyclopropyl(2,5,6,7,8,9-hexahydro-4-hydroxy-2-oxocyclohepta[b]pyran-3-yl)methyl]phenyl]-] | 13.5 | 43.3 | 76.1 | 97.9 | 107 | 98.5 | 0.0278 | – | – | – | – | – | – | – | –
8 | O=c1oc2c(c(O)c1C(c1cccc(NS(=O)(=O)c3ccc(-c4ccon4)s3)c1)C1CC1)CCCCCC2 (stereo not shown) [Example 347, N-[3-[Cyclopropyl(5,6,7,8,9,10-hexahyro-4-hydroxy-2-oxo-2H-cycloocta[b]pyran-3-yl)methyl]phenyl]-5-(3-isoxazolyl)-2-thiophenesulfonamide] | 79.8 | 92.2 | 103 | 100 | 102 | 103 | 0.0025 | – | – | – | – | – | – | – | –
9 | CC(C)(C)OC(=O)N[C@@H](Cc1c[nH]cn1)C(=O)Nc1cccc(C(c2c(O)c3c(oc2=O)CCCCCC3)C2CC2)c1 (stereo partly drawn) [Example 213, Carbamic acid, [2-[[3-[cyclopropyl(5,6,7,8,9,10-hexahydro-4-hydroxy-2-oxo-2H-cycloocta[b]pyran-3-yl)methyl]phenyl]amino]-1-(S)-(1H-imidazol-4-ylmethyl)-2-oxoethyl]-, 1,1-dimethylethyl ester] | – | 82.2 | 94.5 | 102 | 109 | 99.3 | 0.0035 | – | – | – | – | – | – | – | 74.4
10 | O=c1oc2c(c(O)c1C(c1cccc(NS(=O)(=O)c3cccc(NS(=O)(=O)c4ccccc4)c3)c1)C1CC1)CCCCCC2 (stereo not shown) [Example 350, N-[3-[Cyclopropyl(5,6,7,8,9,10-hexahydro-4-hydroxy-2-oxo-2H-cycloocta[b]pyran-3-yl)methyl]phenyl]-3-[(phenylsulfonyl)amino]-benzenesulfonamide] | 22.2 | 64.3 | 82.2 | 98.3 | 102 | 101 | 0.0066 | – | – | – | – | – | – | – | –
11 | CCC(c1cccc(NS(=O)(=O)CCNC(=O)OC(C)(C)C)c1)c1c(O)c2ccccc2oc1=O (stereo not shown) [Example 140, 2-(N-t-butyloxycarbonyl-amino)-ethanesulfonic acid (3-(1-(4-hydroxy-2-oxo-2H-chromen-3-yl)-propyl)-phenyl)-amide] | – | – | – | – | – | – | – | < 10 | 16.5 | 48.1 | 71.8 | 91.1 | 109 | 0.762 | –
12 | Nc1cccc(S(=O)(=O)Nc2cccc(C(c3c(O)c4c(oc3=O)CCCCCC4)C3CC3)c2)c1 (stereo not shown) [Example 353 (First Title Compound), 3-Amino-N-[3-[cyclopropyl(5,6,7,8,9,10-hexahydro-4-hydroxy-2-oxo-2H-cycloocta[b]pyran-3-yl)methyl]phenyl]-benzenesulfonamide] | 48.6 | 83.1 | 92.7 | 97.3 | 103 | 92.9 | 0.00225 | – | – | – | – | – | – | – | –
13 | O=C(Nc1cccc(C(c2c(O)c3c(oc2=O)CCCCCC3)C2CC2)c1)c1ccccc1 (stereo not shown) [Example 211, Benzamide, N-[3-[cyclopropyl(5,6,7,8,9,10-hexahydro-4-hydroxy-2-oxo-2H-cycloocta[b]pyran-3-yl)methyl]phenyl]] | – | 37.2 | 64.5 | 89.6 | 101 | 101 | 0.042 | – | – | – | – | – | – | – | –
14 | CN(C)c1ccc(N=Nc2ccc(S(=O)(=O)Nc3cccc(C(c4c(O)c5c(oc4=O)CCCCCC5)C4CC4)c3)cc2)cc1 (stereo not shown) [Example 309, N-[3-[Cyclopropyl(5,6,7,8,9,10-hexahydro-4-hydroxy-2-oxo-2H-cycloocta[b]pyran-3-yl)methyl]phenyl]-4-[[4-(dimethylamino)phenyl]azo]-benzenesulfonamide] | 46.6 | 67.5 | 82.5 | 76.5 | 43.7 | 19.2 | 0.0058 | – | – | – | – | – | – | – | –
